Laboratory results: ChEMBL document CHEMBL3600354, “Nitric oxide inhibitory activity and antioxidant evaluations of 2-benzoyl-6-benzylidenecyclohexanone analogs, a novel series of curcuminoid and diarylpentanoid derivatives” (Bioorg Med Chem Lett, 2015)
In brackets after ≈: the same amount, converted by molar mass.

What was measured:
RAW264.7 [1] = assay: Inhibition of nitric oxide production in LPS/IFNgamma-stimulated mouse RAW264.7 cells incubated for 17 hrs by Griess assay; format: functional, cell-based; details: RAW264.7, 17 h
RAW264.7 [2] = assay: Inhibition of nitric oxide production in LPS/IFNgamma-stimulated mouse RAW264.7 cells at 50 uM incubated for 17 hrs by Griess assay; format: functional; details: RAW264.7, 17 h
RAW264.7 [3] = assay: Cytotoxicity against LPS/IFNgamma-stimulated mouse RAW264.7 cells by MTT assay; format: cell-based
[4] = Antioxidant activity assessed as DPPH radical scavenging activity at 200 uM incubated for 30 mins under dark conditions; format: physicochemical; details: 0.5 h
[5] = Antioxidant activity assessed as nitric oxide radical scavenging activity at 500 uM incubated for 60 mins with light exposure at room temperature by Griess assay; format: physicochemical; details: 1 h
[6] = Antioxidant activity incubated at 50 degC for 20 mins by FRAP assay; format: physicochemical
[7] = Stability in human liver microsomes assessed as compound remaining at 1 mM pre-incubated at 37 degC for 5 mins followed by NAPDH addition and further incubated at 37 degC for 120 mins by HPLC method; format: ADME; details: read-out: Stability
Liver microsome = assay: Stability in human liver microsomes assessed as compound degradation at 1 mM pre-incubated at 37 degC for 5 mins followed by NAPDH addition and further incubated at 37 degC for 15 to 120 mins by HPLC method; format: ADME; details: 1000 µM
[8] = Chemical stability in phosphate buffer at pH 7.4 at 20 uM measured over 30 mins at 5 mins intervals at 25 degC by ultraviolet absorption spectroscopy; format: physicochemical; details: pH 7.4, 0.5 h
[9] = Solubility in phosphate buffer at pH 7.4 stirred for 24 hrs at room temperature by HPLC method; format: physicochemical
[10] = Antioxidant activity assessed as DPPH radical scavenging activity incubated for 30 mins under dark conditions; format: physicochemical

In the case of `COc1cccc(/C=C2\CCCC(C(=O)c3ccccc3)=C2O)c1`, the IC50 (RAW264.7 [1]) is reported as 32.1 µM, the inhibition at 50 µM (RAW264.7 [2]) is reported as 71.6% and the IC50 (RAW264.7 [3]) is reported as over 100 µM. The “inhibition (INH)” value [4] was 21.8%, the “inhibition (INH)” value [5] was 28.3% and the Activity [6] was 0.018 mmolequiv/L.
For `O=C(C1=C(O)/C(=C/c2ccc(O)c(O)c2)CCC1)c1ccccc1`, the remaining at 2 h, 1000 µM [7] was over 60%, the Stability (Liver microsome) was “Unstable” and the Stability [8] was “Stable”. For the same molecule, the solubility at 24 h [9] was 3.3 µM (≈ 1.06 µg/mL).
In the case of `O=C(C1=C(O)/C(=C/c2cccc3ccccc23)CCC1)c1ccccc1`, the inhibition at 50 µM (RAW264.7 [2]) is reported as 15%, the “inhibition (INH)” value [4] is reported as 17.8% and the “inhibition (INH)” value [5] is reported as 14.8%. The Activity [6] was 0.015 mmolequiv/L.
For `O=C(C1=C(O)/C(=C/c2ccc3ccccc3c2)CCC1)c1ccccc1`, the inhibition at 50 µM (RAW264.7 [2]) was 9.3%, the “inhibition (INH)” value [4] was 11.7% and the “inhibition (INH)” value [5] was 21%. For the same molecule, the Activity [6] was 0.073 mmolequiv/L.
In the case of `O=C(C1=C(O)/C(=C/c2cccs2)CCC1)c1ccccc1`, the inhibition at 50 µM (RAW264.7 [2]) is reported as 8.2%, the “inhibition (INH)” value [4] is reported as 21.8% and the “inhibition (INH)” value [5] is reported as 3.3%. It also gave an Activity [6] of 0.177 mmolequiv/L.
With `Cc1ccc(/C=C2\CCCC(C(=O)c3ccccc3)=C2O)s1` the inhibition at 50 µM (RAW264.7 [2]) was 7.6%, the “inhibition (INH)” value [4] was 18.4% and the “inhibition (INH)” value [5] was 1.6%. The Activity [6] was 0.14 mmolequiv/L.
With `O=C1O[C@H]([C@@H](O)CO)C(O)=C1O` [ASCORBIC ACID] the “inhibition (INH)” value [5] was 2.6%.
In the case of `Cc1cc(C(C)(C)C)c(O)c(C(C)(C)C)c1` [BUTYLATED HYDROXYTOLUENE], the “inhibition (INH)” value [5] is reported as 6.5% and the Activity [6] is reported as 0.798 mmolequiv/L.
`COc1cc(/C=C/C(=O)CC(=O)/C=C/c2ccc(O)c(OC)c2)ccc1O` [CURCUMIN] gave an IC50 (RAW264.7 [1]) of 14.7 µM, an inhibition at 50 µM (RAW264.7 [2]) of 99.3% and a remaining at 2 h, 1000 µM [7] of under 20%. The IC50 (RAW264.7 [3]) was 28.8 µM, the “inhibition (INH)” value [4] was 84.2% and the “inhibition (INH)” value [5] was 88.3%. The Activity [6] was 0.803 mmolequiv/L, the Stability (Liver microsome) was “Unstable” and the Stability [8] was “Unstable”. It also gave an IC50 [10] of 23.6 µM and a solubility at 24 h [9] of 1.1 µM (≈ 0.405 µg/mL).
In the case of `Cc1c(C)c2c(c(C)c1O)CCC(C)(C(=O)O)O2` (configuration not stated) [TROLOX], the “inhibition (INH)” value [5] is reported as 12.4% and the Activity [6] is reported as 0.395 mmolequiv/L.
